Columns and labels:
TS [1] = biological target: T1, TS (Homo sapiens, UniProt P04818); assay: Surface plasmon resonance; type: binding; parameters: His6 tag with TEV site (vector-encoded by pNIC28-Bsa4); made in house; host or cells: Rosetta BL21-DE3 Escherichia coli; conditions: 200 μM dUMP, 20 nM to 10 μM compound; signal does not saturate
Method: A concentration series (20 nM to 10 μM) of CBK115334 was injected over the prepared surface for 60 s and allowed to dissociate for 60 s with a flow rate of 70 μl min^−1 at 25 °C. The assay buffer was 20 mM HEPES, 150 mM NaCl, pH 7.5 and 0.005% Tween-20 supplemented with 1% DMSO and 200 μM dUMP. Response data was processed using the BIAevaluation software. Responses were double referenced and solvent-corrected. The data sets were fitted to 1:1 steady-state model for determination of binding constants.
Target sequence in this assay (P04818 whole entry): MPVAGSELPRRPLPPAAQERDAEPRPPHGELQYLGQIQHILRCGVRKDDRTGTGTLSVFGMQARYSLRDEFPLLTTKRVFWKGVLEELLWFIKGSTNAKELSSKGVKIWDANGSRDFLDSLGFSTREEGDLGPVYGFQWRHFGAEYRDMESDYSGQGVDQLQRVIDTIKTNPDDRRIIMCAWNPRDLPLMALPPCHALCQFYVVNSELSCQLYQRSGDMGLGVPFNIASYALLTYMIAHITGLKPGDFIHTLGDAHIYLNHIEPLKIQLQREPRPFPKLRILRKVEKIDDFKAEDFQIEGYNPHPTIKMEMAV

TS [2] = biological target: T1, TS; assay: TS enzyme inhibition assay; type: biochemical; parameters: His6 tag with TEV site (vector-encoded by pNIC28-Bsa4); made in house; host or cells: Rosetta BL21-DE3 Escherichia coli
Method: Enzymatic activity of recombinant human TS was measured spectrophotometrically at 340 nm by monitoring the absorbance change during the conversion of 5,10-methylenetetrahydrofolate to dihydrofolate using an Infinite M200 spectrometer (Tecan). Measurements were carried out at room temperature and in a buffer of 50 mM Tris at pH 7.5 and 150 mM NaCl. Initial velocities were measured with 250 nM of purified protein, 100 μM 5,10-methylenetetrahydrofolate and 100 μM dUMP in the presence of compounds using the same amount of DMSO as control. Initial rates and activity were analyzed with the software package Prism (GraphPad Software).
Decitabine at a concentration of 1 mM was incubated with 1 mg ml^−1 of recombinant DCK and 2.5 mM ATP in a buffer of 50 mM Tris at pH 7.5, 150 mM NaCl and 0.5 mM MgCl2 at room temperature for 60 min to generate the corresponding monophosphates. To probe for nucleotide deamination the samples were further treated with 1 mg ml^−1 of recombinant DCTD in the presence of 1 mM ATP and 10 μM ZnCl2 for 20 min at room temperature. After incubation, the samples were heated at 95 °C for 10 min and centrifuged for 10 min at the highest speed at 4 °C using a benchtop centrifuge. The supernatant was tested without dilution in thermal shift in vitro assays and the TS enzyme inhibition assay. The supernatants from samples without nucleoside were used as the treatment controls.
Target sequence in this assay (P04818 whole entry): as above

[3] = biological target: T2, human thymidylate synthase (TS) (Homo sapiens, UniProt P04818); assay: ITDRF CETSA at 50 °C, AlphaScreen detection, live K562 cells; type: cell-based; conditions: 2 h preincubation, 50 °C, unit taken from curve axis log [cmp] (M), read-out: ITDRF CETSA (hit confirmation)
T2 construct: screening in live, non-engineered cells expressing thymidylate synthase; endogenous in cells; host or cells: K562 (human myelogenous leukemia) cells
Method: For the […] experiments 11-point dose-response curves with three-fold difference in concentration between wells were generated using the Bravo liquid handling system (all serial dilutions were done in 100% DMSO). […] The concentration of DMSO was 0.5% in all samples. […] The assay ready plates were prepared as outlined above for the screen.
The screen procedure started with the addition of 5 μl of a suspension of K562 cells at a density of 10 million cells per ml to all wells of a 384 well hardshell PCR plate (HSR480, BIORAD) using an electronic multichannel pipette (Biohit). […] For the time-course experiments the incubation times were altered to include also 10 min, 30 min and 6 h. […] After the incubation step the plates were transiently heated at 50 °C for 3 min followed by a controlled cooling to 20 °C for 1 min using a real-time PCR machine (LightCycler480 system, Roche). Plate handling was then as described above for the thermal aggregation experiments. The data were analyzed using microsoft excel and GraphPad Prism 6.
A calculation of the average and standard error of means for each set of controls also allowed an illustration of how these responses varied over the 32 screening plates. The Z′ factor[38] is commonly used as a measure of how well the assay separates between the controls and this was calculated as described based on the calculated averages and standard deviations of the controls on a per plate basis. For the Tagg shift and the […] experiments the data were analyzed in GraphPad Prism using the Boltzmann sigmoid equation and the saturation binding curve (rectangular hyperbola; binding isotherm) function, respectively. As already discussed[14] these methods make use of equilibrium models for data analysis although the methodology depends on the irreversible aggregation of denatured material. For this reason we refer to the observed responses as apparent and isothermal dose-response fingerprints and are careful with any quantitative interpretations, being well aware of their dependency on experimental conditions. Experiments are on-going to address the quantitative interpretation of CETSA data.

TS [4] = biological target: T1, TS; assay: Western blot ITDRF CETSA of decitabine with or without DCK inhibitor DI-82, K562 cells; type: cell-based; parameters: screening in live, non-engineered cells expressing thymidylate synthase; endogenous in cells; host or cells: K562 (human myelogenous leukemia) cells
Method: K562 cells were treated with each respective compound concentrations and one vehicle as control in 100 μl aliquots in 0.2 ml tubes for 2 h in an incubator at 37 °C and 5% CO2. The cell aliquots were heated at 50 °C and analyzed with western blot following the procedure described above.
For the decitabine metabolism, decitabine was serially diluted to generate an 11 point dose–response curve and an […] experiment was performed as described above in absence and presence of 200 μM of the DCK inhibitor DI-82 (referred to as 12R in the main text of the original publication and DI-82 in the Supplementary Material)[34].
NuPage Novex Bis-Tris 4–12% polyacrylamide gels with NuPAGE MES SDS running buffer (Life Technologies) were used for separation of proteins in the samples. Proteins were transferred to nitrocellulose membranes using the iBlot2 blotting system (Life Technologies). Primary antibodies anti-TS (D5B3) XP (Cell Signaling), anti-dCK (sc-393099), anti-β-actin (sc-69879); secondary goat anti-mouse HRP-IgG (sc-2055) and bovine anti-rabbit HRP-IgG (sc-2374) antibodies (Santa Cruz Biotechnology, Santa Cruz, CA, USA) were used for immunoblotting. […] Chemiluminescence intensities were detected and quantified using a ChemiDoc XRS+ imaging system (Bio-Rad) with Image Lab software (Bio-Rad).
Target sequence in this assay (P04818 2-313 limits assumed): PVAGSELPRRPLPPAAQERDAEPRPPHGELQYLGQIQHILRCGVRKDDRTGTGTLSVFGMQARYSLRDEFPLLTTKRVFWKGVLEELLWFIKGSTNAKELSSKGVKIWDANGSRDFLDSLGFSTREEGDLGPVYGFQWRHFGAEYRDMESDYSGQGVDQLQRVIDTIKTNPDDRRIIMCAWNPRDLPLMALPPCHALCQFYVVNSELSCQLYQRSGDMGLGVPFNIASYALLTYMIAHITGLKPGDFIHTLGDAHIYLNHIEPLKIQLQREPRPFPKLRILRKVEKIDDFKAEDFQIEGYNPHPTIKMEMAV

T2 sequence (P04818 2-313 limits assumed): as above

Cc1cc(O)nc2sc(C(=O)c3ccccc3)c(N)c12 [CBK115334, 3-amino-2-benzoyl-4-methylthieno(2,3-b)pyridin-6-ol]
binding to TS by surface plasmon resonance (steady state affinity) (TS [1]): low μM range | inhibition at 10 µM (TS [2]; 10 μM compound, read-out: inhibition of TS enzymatic activity): 60% | inhibition of TS enzymatic activity (TS [2]; 100 μM compound): near complete inhibition

Nc1ncn([C@H]2C[C@H](O)[C@@H](CO)O2)c(=O)n1 [decitabine, 5-Aza-deoxycytidine]
inhibition in TS enzymatic assay (TS [2]; decitabine sample after DCK treatment): minor inhibition | inhibition in TS enzymatic assay (TS [2]; decitabine sample after treatment with both DCK and DCTD): near full inhibition | EC50 [3]: 6.87e-08 M | stabilization of TS (ITDRFCETSA) (TS [4]; in absence of DI-82, K562 cells): Dose-dependent stabilization | ability to bind TS (ITDRFCETSA) (TS [4]; in presence of 200 μM DI-82, K562 cells): completely blunted
